The text below walks through data of ChEMBL document CHEMBL1141163, “QSAR studies of copper azamacrocycles and thiosemicarbazones: MM3 parameter development and prediction of biological properties” (J Med Chem, 2005).

The data set can be described thus: Partition coefficient (logP). It counts as physicochemical. The settings on record: octanol/water.

Regarding Copper(II) Complex, the logP (in general, a log measure of how a compound divides between an organic and an aqueous phase) is reported as -2.29.
